The test concerns the target T1, Mdm2 (1-125) (Homo sapiens, UniProt Q00987).
T1 construct: Purified MDM2 (1-125) protein was titrated against 50 nM carboxyfluorescein (FAM)-labeled; GST (N, cleaved yes); made in house; host or cells: E. coli BL21 DE3 (pGEX-6P-1)
The experiment in a line: Mdm2 competitive fluorescence anisotropy assay (FAM-labeled 12/1 peptide displacement). Further: 250 nM MDM2. Particulars: read-out: Kd (apparent dissociation constant, competitive fluorescence anisotropy). In kind it is binding. On the procedure:
analyzed with SDS page gel and concentrated using a Centricon (3.5 kDa MWCO) concentrator, Millipore. Mdm2 protein samples were then dialyzed into a buffer solution containing 20mM Bis-Tris, pH 6.5, 0.05M NaCl with 1mM DTT and loaded onto a monoS column pre-equilibrated in buffer A (20mM Bis-Tris, pH 6.5, 1mM DTT). The column was then washed in 6 column volumes of buffer A and bound protein was eluted with a linear gradient of 1M NaCL over 25 column volumes. Protein fractions were analyzed with SDS page gel and concentrated using a Centricon (3.5 kDa MWCO) concentrator, Millipore.
Protein concentration was determined using A280 using an extinction coefficients […]
Mdm2 Competitive Fluorescence Anisotropy Assay and Kd Determination […]
Dissociation constants for titration of MDM2 against […]
equation shown below:25,26
[P] is the protein concentration (MDM2), [L] is the labeled peptide concentration, r is the anisotropy measured, r0 is the anisotropy of the free peptide, rb is the anisotropy of the MDM2– FAM-labeled peptide complex, Kd is the dissociation constant, [L]t is the total FAM labeled
(1 picture or pasted object on this page, not shown here) […]
peptide concentration, and [P]t is the total MDM2 concentration. […]
respective competing ligands in subsequent competition assays.
Apparent Kd values were determined for a variety of molecules via competitive fluorescence anisotropy experiments. Titrations were carried out with the concentration of MDM2 held constant […]
The competing molecules were then titrated against the complex of the FAM-labeled peptide and protein. Apparent Kd values were determined by fitting the experimental data to the equations shown below:26,27 […]
[L]st and [L]t denote labeled ligand and total unlabeled ligand input concentrations, respectively.
Kd2 is the dissociation constant of the interaction between the unlabeled ligand and the protein. In […]
all competitive types of experiments, it is assumed that [P]t > [L]st, otherwise considerable amounts of free labeled ligand would always be present and would interfere with measurements. Kd1 is the […]
experimentally determined as described in the previous paragraph. The FAM-labeled peptide was dissolved in dimethyl sulfoxide (DMSO) at 1 mM and diluted into experimental buffer. Readings were carried out with an Envision Multilabel Reader (PerkinElmer). Experiments were carried out […]
Tween 20 buffer. All titrations were carried out in triplicate. Curve-fitting was carried out using […]
Negative control titrations of the ligands under investigation were also carried out with the fluorescently labeled peptide (in the absence of MDM2) to ensure no interactions were occurring between the ligands and FAM-labeled peptide. […]
which would otherwise indicate an unintended interaction between the ligand and the FAM-labeled peptide to be displaced from the MDM2 binding site. […]
In general terms: In fluorescence polarisation assays a small probe gives low polarisation when free and higher when bound to something large.

Positions of bridges follow the written chain, without caps; N, C: chain ends. Non-standard residues stand in square brackets, D forms with d. Residues, ends and D or L forms follow the SMILES beside them. *: point of attachment. Biotin = O=C1N[C@H]2[C@H](CS[C@H]2CCCCC(=O)*)N1; R8 = C=CCCCCCC[C@@](C)(N)C(=O)O; Cba = N[C@@H](CC1CCC1)C(=O)O; S5 = C=CCCC[C@](C)(N)C(=O)O; Ahx = NCCCCCC(=O)O

T1 sequence (Q00987 1-125): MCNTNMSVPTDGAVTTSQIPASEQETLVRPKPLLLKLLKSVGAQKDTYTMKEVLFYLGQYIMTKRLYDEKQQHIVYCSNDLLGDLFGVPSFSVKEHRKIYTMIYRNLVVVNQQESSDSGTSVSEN

As to `CC(C)C[C@@H]1NC(=O)[C@H](C)NC(=O)[C@H](Cc2c[nH]c3ccccc23)NC(=O)[C@H](Cc2ccc(O)cc2)NC(=O)[C@H](CCC(=O)O)NC(=O)[C@](C)(NC(=O)[C@H](Cc2ccccc2)NC(=O)[C@H](CO)NC(=O)[C@@H](NC(=O)CCCCCNC(=O)CCCC[C@@H]2SC[C@@H]3NC(=O)N[C@@H]32)[C@@H](C)O)CCCCCCC=CCCC[C@@](C)(C(N)=O)NC(=O)[C@H](CC(C)C)NC1=O` [VIP-67], the Kd was 100 ± 7.7 nM.
On to `CC(=O)N[C@@H](CCCCN)C(=O)N[C@@H](CC(C)C)C(=O)N[C@@H](C)C(=O)N[C@@H](CCCCN)C(=O)NCCCCCC(=O)N[C@H](C(=O)N[C@@H](CO)C(=O)N[C@@H](Cc1ccccc1)C(=O)N[C@]1(C)CCCCCCC=CCCC[C@@](C)(C(N)=O)NC(=O)[C@H](CC(C)C)NC(=O)[C@H](CC(C)C)NC(=O)[C@H](C)NC(=O)[C@H](Cc2c[nH]c3ccccc23)NC(=O)[C@H](Cc2ccc(O)cc2)NC(=O)[C@H](CCC(=O)O)NC1=O)[C@@H](C)O` [VIP-122], for which the Kd amounted to 3.7 ± 0.9 nM.
The value for `CC(=O)N[C@@H](CCCNC(=N)N)C(=O)N[C@@H](CCCNC(=N)N)C(=O)NCCCCCC(=O)N[C@H](C(=O)N[C@@H](CO)C(=O)N[C@@H](Cc1ccccc1)C(=O)N[C@]1(C)CCCCCCC=CCCC[C@@](C)(C(=O)N[C@@H](CCC(=O)O)C(=O)N[C@@H](CC(N)=O)C(=O)N[C@@H](Cc2ccccc2)C(N)=O)NC(=O)[C@H](CC(C)C)NC(=O)[C@H](CC(C)C)NC(=O)[C@H](C)NC(=O)[C@H](Cc2c[nH]c3ccccc23)NC(=O)[C@H](Cc2ccc(O)cc2)NC(=O)[C@H](CCC(=O)O)NC1=O)[C@@H](C)O` [VIP-117] (Ac-RR[Ahx]TSF[R8]EYWALL[S5]ENF-NH2; staple 7-14) was 160 ± 14.6 nM; that for `CC(=O)N[C@H](C(=O)N[C@@H](CO)C(=O)N[C@@H](Cc1ccccc1)C(=O)N[C@]1(C)CCCCCCC=CCCC[C@@](C)(C(=O)N[C@@H](CCC(=O)O)C(N)=O)NC(=O)[C@H](CC(C)C)NC(=O)[C@H](CC(C)C)NC(=O)[C@H](C)NC(=O)[C@H](Cc2c[nH]c3cc(Cl)ccc23)NC(=O)[C@H](Cc2ccc(O)cc2)NC(=O)[C@H](CCC(=O)O)NC1=O)[C@@H](C)O` [VIP-137] was < 1 nM.
`CC(=O)N[C@@H](CCCCN)C(=O)N[C@@H](CCCCN)C(=O)NCCCCCC(=O)N[C@H](C(=O)N[C@@H](CO)C(=O)N[C@@H](Cc1ccccc1)C(=O)N[C@]1(C)CCCCCCC=CCCC[C@@](C)(C(=O)N[C@@H](CCC(=O)O)C(=O)N[C@@H](CC(N)=O)C(=O)N[C@@H](Cc2ccc(O)cc2)C(N)=O)NC(=O)[C@H](CC(C)C)NC(=O)[C@H](CC(C)C)NC(=O)[C@H](C)NC(=O)[C@H](Cc2c[nH]c3ccccc23)NC(=O)[C@H](Cc2ccc(O)cc2)NC(=O)[C@H](CCC(=O)O)NC1=O)[C@@H](C)O` [VIP-86] (Ac-KK[Ahx]TSF[R8]EYWALL[S5]ENY-NH2; staple 7-14): the Kd stood at 23.5 ± 1.4 nM.
As to `CC(=O)N[C@H](CCCCN)C(=O)NCCCCCC(=O)N[C@H](C(=O)N[C@@H](CO)C(=O)N[C@@H](Cc1ccccc1)C(=O)N[C@]1(C)CCCCCCC=CCCC[C@@](C)(C(=O)N[C@@H](CCC(=O)O)C(=O)N[C@@H](CC(N)=O)C(=O)N[C@@H](Cc2ccccc2)C(N)=O)NC(=O)[C@H](CC(C)C)NC(=O)[C@H](CC(C)C)NC(=O)[C@H](C)NC(=O)[C@H](Cc2c[nH]c3ccccc23)NC(=O)[C@H](Cc2ccc(O)cc2)NC(=O)[C@H](CCC(=O)O)NC1=O)[C@@H](C)O` [VIP-132], the Kd worked out at 8 ± 0.8 nM.
For the compound `CC(=O)N[C@@H](CC(C)C)C(=O)N[C@H](C(=O)N[C@@H](Cc1ccccc1)C(=O)N[C@]1(C)CCCCCCC=CCCC[C@@](C)(C(=O)N[C@@H](CCC(=O)O)C(=O)N[C@@H](CC(N)=O)C(=O)N[C@@H](Cc2ccccc2)C(N)=O)NC(=O)[C@H](CC(C)C)NC(=O)[C@H](CC(C)C)NC(=O)[C@H](C)NC(=O)[C@H](Cc2c[nH]c3ccccc23)NC(=O)[C@H](Cc2ccc(O)cc2)NC(=O)[C@H](CCC(=O)O)NC1=O)[C@@H](C)O` [VIP-120] (Ac-LTF[R8]EYWALL[S5]ENF-NH2; staple 4-11), the Kd is 1.8 ± 0.7 nM.
For the compound `CC(=O)N[C@H](C(=O)N[C@@H](CO)C(=O)N[C@@H](Cc1ccccc1)C(=O)N[C@]1(C)CCCCCCC=CCCC[C@@](C)(C(=O)N[C@@H](CCC(=O)O)C(=O)N[C@@H](CC(N)=O)C(=O)N[C@@H](Cc2ccc(O)cc2)C(N)=O)NC(=O)[C@H](CC(C)C)NC(=O)[C@H](CC(C)C)NC(=O)[C@H](C)NC(=O)[C@H](Cc2c[nH]c3ccccc23)NC(=O)[C@H](Cc2ccc(O)cc2)NC(=O)[C@H](CCC(=O)O)NC1=O)[C@@H](C)O` [VIP-66], the Kd was determined as 23.1 ± 1.5 nM.
With `CC(=O)N[C@@H](CCCNC(=N)N)C(=O)N[C@@H](CCCNC(=N)N)C(=O)N[C@@H](CCCNC(=N)N)C(=O)NCCCCCC(=O)N[C@H](C(=O)N[C@@H](CO)C(=O)N[C@@H](CC(C)C)C(=O)N[C@]1(C)CCCCCCC=CCCC[C@@](C)(C(=O)N[C@@H](CCC(=O)O)C(=O)N[C@@H](CC(N)=O)C(=O)N[C@@H](Cc2ccccc2)C(N)=O)NC(=O)[C@H](Cc2c[nH]c3ccccc23)NC(=O)[C@H](CC(C)C)NC(=O)[C@H](C)NC(=O)[C@H](Cc2ccccc2)NC(=O)[C@H](Cc2ccc(O)cc2)NC(=O)[C@H](CCC(=O)O)NC1=O)[C@@H](C)O` [VIP-128 SCRAM] (Ac-RRR[Ahx]TSL[R8]EYFALW[S5]ENF-NH2; staple 8-15) the figure was > 10000 nM; with `CC(C)C[C@@H]1NC(=O)[C@H](C)NC(=O)[C@H](Cc2c[nH]c3ccccc23)NC(=O)[C@H](Cc2ccc(O)cc2)NC(=O)[C@H](CCC(=O)O)NC(=O)[C@](C)(NC(=O)[C@H](Cc2ccccc2)NC(=O)[C@H](CO)NC(=O)[C@@H](NC(=O)CCCCCNC(=O)CCCC[C@@H]2SC[C@@H]3NC(=O)N[C@@H]32)[C@@H](C)O)CCCCCCC=CCCC[C@@](C)(C(N)=O)NC(=O)[C@H](CC2CCC2)NC1=O` [VIP-68] ({Biotin-Ahx}-TSF[R8]EYWAL[Cba][S5]-NH2; staple 4-11), 41.6 ± 1.7 nM.
The value for `CC(C)C[C@@H]1NC(=O)[C@H](C)NC(=O)[C@H](Cc2c[nH]c3ccccc23)NC(=O)[C@H](Cc2ccc(O)cc2)NC(=O)[C@H](CCC(=O)O)NC(=O)[C@](C)(NC(=O)[C@H](Cc2ccccc2)NC(=O)[C@H](CO)NC(=O)[C@@H](NC(=O)CCCCCNC(=O)CCCC[C@@H]2SC[C@@H]3NC(=O)N[C@@H]32)[C@@H](C)O)CCCCCCC=CCCC[C@@](C)(C(=O)N[C@@H](CCC(=O)O)C(=O)N[C@@H](CC(N)=O)C(=O)N[C@@H](Cc2ccc(O)cc2)C(N)=O)NC(=O)[C@H](CC(C)C)NC1=O` [VIP-87] was 46.2 ± 3.3 nM; that for `CC(=O)N[C@H](CCCCN)C(=O)N[C@H](CCCCN)C(=O)NCCCCCC(=O)N[C@H](C(=O)N[C@@H](CO)C(=O)N[C@@H](Cc1ccccc1)C(=O)N[C@]1(C)CCCCCCC=CCCC[C@@](C)(C(=O)N[C@@H](CCC(=O)O)C(=O)N[C@@H](CC(N)=O)C(=O)N[C@@H](Cc2ccccc2)C(N)=O)NC(=O)[C@H](CC(C)C)NC(=O)[C@H](CC(C)C)NC(=O)[C@H](C)NC(=O)[C@H](Cc2c[nH]c3ccccc23)NC(=O)[C@H](Cc2ccc(O)cc2)NC(=O)[C@H](CCC(=O)O)NC1=O)[C@@H](C)O` [VIP-133] (Ac-[dK][dK][Ahx]TSF[R8]EYWALL[S5]ENF-NH2; staple 7-14) was 10 ± 1 nM; that for `CC(=O)N[C@@H](CCCCN)C(=O)N[C@@H](CCCCN)C(=O)NCCCCCC(=O)N[C@H](C(=O)N[C@@H](CO)C(=O)N[C@@H](Cc1ccccc1)C(=O)N[C@]1(C)CCCCCCC=CCCC[C@@](C)(C(N)=O)NC(=O)[C@H](CC(C)C)NC(=O)[C@H](CC(C)C)NC(=O)[C@H](C)NC(=O)[C@H](Cc2c[nH]c3ccccc23)NC(=O)[C@H](Cc2ccc(O)cc2)NC(=O)[C@H](CCC(=O)O)NC1=O)[C@@H](C)O` [VIP-77] was 46.8 ± 3.9 nM.
Take `CC(=O)N[C@@H](CCCNC(=N)N)C(=O)N[C@@H](CCCNC(=N)N)C(=O)N[C@@H](CCCNC(=N)N)C(=O)NCCCCCC(=O)N[C@H](C(=O)N[C@@H](CO)C(=O)N[C@@H](Cc1ccccc1)C(=O)N[C@]1(C)CCCCCCC=CCCC[C@@](C)(C(=O)N[C@@H](CCC(=O)O)C(=O)N[C@@H](CC(N)=O)C(=O)N[C@@H](Cc2ccc(O)cc2)C(N)=O)NC(=O)[C@H](CC(C)C)NC(=O)[C@H](CC(C)C)NC(=O)[C@H](C)NC(=O)[C@H](Cc2c[nH]c3ccccc23)NC(=O)[C@H](Cc2ccc(O)cc2)NC(=O)[C@H](CCC(=O)O)NC1=O)[C@@H](C)O` [VIP-85] (Ac-RRR[Ahx]TSF[R8]EYWALL[S5]ENY-NH2; staple 8-15): the Kd was found to be 44.9 ± 3.5 nM.

The values are drawn from publication PMC5431883, “Enhancing Specific Disruption of Intracellular Protein Complexes by Hydrocarbon Stapled Peptides Using Lipid Based Delivery” (Scientific Reports, 2017).
